ChEMBL document CHEMBL1909046, “DrugMatrix in vitro pharmacology data”

Columns and labels:
[1] = target: T1, Alpha-1A adrenergic receptor (Rattus norvegicus, UniProt P43140); test: DRUGMATRIX: Alpha-1A adrenergic receptor radioligand binding (ligand: prazosin); assay type: cell membranes, Wistar, Submaxillary gland, Membrane; details: Not Active = under 50% inhibition at 10 µM
T1 sequence (P43140 whole entry): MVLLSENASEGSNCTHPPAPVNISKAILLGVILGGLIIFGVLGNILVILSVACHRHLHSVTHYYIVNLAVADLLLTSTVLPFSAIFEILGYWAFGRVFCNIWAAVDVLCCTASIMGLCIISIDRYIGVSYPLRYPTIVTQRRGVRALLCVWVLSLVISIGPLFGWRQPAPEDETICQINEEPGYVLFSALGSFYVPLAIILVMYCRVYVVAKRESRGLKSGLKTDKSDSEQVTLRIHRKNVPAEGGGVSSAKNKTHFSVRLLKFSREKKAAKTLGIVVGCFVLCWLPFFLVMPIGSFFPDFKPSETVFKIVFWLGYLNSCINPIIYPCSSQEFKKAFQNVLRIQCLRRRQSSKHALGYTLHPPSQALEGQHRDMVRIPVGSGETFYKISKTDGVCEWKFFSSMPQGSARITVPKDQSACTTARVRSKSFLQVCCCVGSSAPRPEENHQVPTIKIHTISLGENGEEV

[2] = target: T2, 5-hydroxytryptamine receptor 2C (Homo sapiens, UniProt P28335); test: DRUGMATRIX: Serotonin (5-Hydroxytryptamine) 5-HT2C radioligand binding (ligand: [3H] Mesulergine); assay type: cell membranes, CHO-K1, Membrane; details: cho-k1; Not Active = under 50% inhibition at 10 µM
T2 sequence (P28335 whole entry): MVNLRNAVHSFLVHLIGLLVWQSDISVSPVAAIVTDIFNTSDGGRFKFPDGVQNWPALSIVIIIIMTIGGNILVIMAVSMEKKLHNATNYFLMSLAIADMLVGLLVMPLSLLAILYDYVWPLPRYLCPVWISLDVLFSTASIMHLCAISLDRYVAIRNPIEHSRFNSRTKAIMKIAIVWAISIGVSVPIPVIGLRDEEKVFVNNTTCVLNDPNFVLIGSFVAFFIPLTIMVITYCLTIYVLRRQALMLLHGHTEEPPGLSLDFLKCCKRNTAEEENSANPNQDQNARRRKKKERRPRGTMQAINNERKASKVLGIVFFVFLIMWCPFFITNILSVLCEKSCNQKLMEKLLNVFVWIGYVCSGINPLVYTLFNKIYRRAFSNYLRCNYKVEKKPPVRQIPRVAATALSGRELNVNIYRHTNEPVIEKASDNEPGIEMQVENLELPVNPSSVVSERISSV

[3] = target: Melanocortin receptor 4 (Homo sapiens, UniProt P32245); assay type: cell membranes, Membrane; details: hek293; further: in other assays of this panel Not Active means under 50% inhibition at 10 µM
[4] = target: T3, Amine oxidase [flavin-containing] A (Homo sapiens, UniProt P21397); test: DRUGMATRIX: Monoamine Oxidase MAO-A enzyme inhibition (substrate: Kynuramine); parameters: species or system BTI-TN-5B1-4; details: bti-tn-5b1-4; Not Active = under 50% inhibition at 10 µM
T3 sequence (P21397 whole entry): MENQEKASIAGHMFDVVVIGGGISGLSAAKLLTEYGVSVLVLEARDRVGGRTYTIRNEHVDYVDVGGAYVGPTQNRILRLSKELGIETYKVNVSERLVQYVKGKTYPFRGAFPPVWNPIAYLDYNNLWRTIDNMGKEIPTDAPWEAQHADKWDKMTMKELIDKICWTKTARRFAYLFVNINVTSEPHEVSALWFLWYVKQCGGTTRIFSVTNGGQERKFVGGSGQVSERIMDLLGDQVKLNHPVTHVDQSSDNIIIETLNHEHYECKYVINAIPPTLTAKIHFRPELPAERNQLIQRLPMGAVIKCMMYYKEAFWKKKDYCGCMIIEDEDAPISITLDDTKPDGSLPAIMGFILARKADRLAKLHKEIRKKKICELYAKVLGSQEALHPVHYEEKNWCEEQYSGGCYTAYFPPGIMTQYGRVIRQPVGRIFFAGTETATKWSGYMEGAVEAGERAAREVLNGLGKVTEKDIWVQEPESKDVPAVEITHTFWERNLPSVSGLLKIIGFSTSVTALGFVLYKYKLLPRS

[5] = target: Platelet-activating factor receptor (Homo sapiens, UniProt P25105); assay type: tissue-based; further: in other assays of this panel Not Active means under 50% inhibition at 10 µM
[6] = target: T4, Neutrophil elastase (Homo sapiens, UniProt P08246); assay type: tissue-based;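 further: inhibition of neutrophil elastase enzyme activity, measured with a p-nitroanilide-linked peptide substrate; in other assays of this panel Not Active means under 50% inhibition at 10 µM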
T4 sequence (P08246 whole entry): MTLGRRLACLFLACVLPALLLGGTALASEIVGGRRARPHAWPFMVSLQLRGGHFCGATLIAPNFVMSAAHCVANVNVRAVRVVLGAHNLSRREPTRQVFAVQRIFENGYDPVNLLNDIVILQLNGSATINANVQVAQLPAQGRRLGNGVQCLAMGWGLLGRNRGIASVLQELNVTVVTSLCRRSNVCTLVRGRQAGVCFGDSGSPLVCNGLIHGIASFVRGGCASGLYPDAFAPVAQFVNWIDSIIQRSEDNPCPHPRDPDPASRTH

[7] = target: T5, Cytochrome P450 1A2 (Homo sapiens, UniProt P05177); details: bti-tn-5b1-4; further: in other assays of this panel Not Active means under 50% inhibition at 10 µM
T5 sequence (P05177 whole entry): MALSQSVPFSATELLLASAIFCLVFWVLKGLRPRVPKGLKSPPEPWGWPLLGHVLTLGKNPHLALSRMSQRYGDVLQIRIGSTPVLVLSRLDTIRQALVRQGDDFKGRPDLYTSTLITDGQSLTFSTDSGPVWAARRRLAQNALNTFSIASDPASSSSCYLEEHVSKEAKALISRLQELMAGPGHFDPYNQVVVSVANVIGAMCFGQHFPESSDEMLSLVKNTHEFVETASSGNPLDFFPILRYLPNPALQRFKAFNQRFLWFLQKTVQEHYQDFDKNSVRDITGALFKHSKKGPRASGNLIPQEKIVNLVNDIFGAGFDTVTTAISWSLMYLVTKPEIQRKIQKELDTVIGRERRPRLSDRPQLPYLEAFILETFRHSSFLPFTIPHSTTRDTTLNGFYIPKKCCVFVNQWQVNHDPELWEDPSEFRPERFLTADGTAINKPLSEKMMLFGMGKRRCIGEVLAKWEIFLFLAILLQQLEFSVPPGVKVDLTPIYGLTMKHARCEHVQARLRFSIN

Sequence of Melanocortin receptor 4 (P32245 whole entry): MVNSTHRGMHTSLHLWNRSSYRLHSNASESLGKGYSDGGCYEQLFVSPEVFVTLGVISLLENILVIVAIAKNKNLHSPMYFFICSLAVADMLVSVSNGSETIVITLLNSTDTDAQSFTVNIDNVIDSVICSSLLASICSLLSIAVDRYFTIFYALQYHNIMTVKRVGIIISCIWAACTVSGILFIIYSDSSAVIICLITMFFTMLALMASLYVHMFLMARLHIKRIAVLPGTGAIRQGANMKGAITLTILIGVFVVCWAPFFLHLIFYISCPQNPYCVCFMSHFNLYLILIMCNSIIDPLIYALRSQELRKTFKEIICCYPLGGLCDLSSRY
Sequence of Platelet-activating factor receptor (P25105 whole entry): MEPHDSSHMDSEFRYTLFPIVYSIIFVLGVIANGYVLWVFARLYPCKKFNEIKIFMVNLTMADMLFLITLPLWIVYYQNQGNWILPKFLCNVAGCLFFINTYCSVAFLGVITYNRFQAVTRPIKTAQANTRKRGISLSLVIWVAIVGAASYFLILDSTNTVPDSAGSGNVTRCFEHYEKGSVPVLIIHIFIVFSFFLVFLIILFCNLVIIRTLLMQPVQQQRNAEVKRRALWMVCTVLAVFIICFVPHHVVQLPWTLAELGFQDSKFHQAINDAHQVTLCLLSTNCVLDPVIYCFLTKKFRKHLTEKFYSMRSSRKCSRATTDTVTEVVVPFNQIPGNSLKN

O=c1[nH]c(=O)n(C2CCCO2)cc1F (stereo not given) [TEGAFUR]
Not Active: IC50 [1] | IC50 [2] | IC50 [3] | IC50 [4] | IC50 [5] | IC50 [6] | IC50 [7] | Ki [7]

CC(=N)S [THIOACETAMIDE]
Not Active: IC50 [1] | IC50 [2] | IC50 [3] | IC50 [4] | IC50 [5] | IC50 [6] | IC50 [7] | Ki [7]

Cc1ccc(C(=O)c2ccc(CC(=O)O)n2C)cc1 [TOLMETIN]
Not Active: IC50 [1] | IC50 [2] | IC50 [3] | IC50 [4] | IC50 [5] | IC50 [6] | IC50 [7] | Ki [7]

CC(=O)OCC(COC(C)=O)OC(C)=O [TRIACETIN]
Not Active: IC50 [1] | IC50 [2] | IC50 [3] | IC50 [4] | IC50 [5] | IC50 [6] | IC50 [7] | Ki [7]

TRANSPLATIN
Not Active: IC50 [1] | Ki [1] | IC50 [2] | Ki [2] | IC50 [3] | Ki [3] | IC50 [4] | Ki [4] | IC50 [5] | Ki [5] | IC50 [6] | Ki [6] | IC50 [7] | Ki [7]

ZIRCONIUM(IV) CHLORIDE
Not Active: IC50 [1] | Ki [1] | IC50 [2] | Ki [2] | IC50 [3] | Ki [3] | IC50 [4] | Ki [4] | IC50 [5] | Ki [5] | IC50 [6] | Ki [6] | IC50 [7] | Ki [7]
